PMC5645785 (Organic & biomolecular chemistry, 2016)
Where two headings read alike, the source gives them in different places.

How the values were obtained:
[1] = biological target: Escherichia coli GS (EcGS) (Escherichia coli, UniProt P0A6U8); assay: EcGS activity, glycogen synthesis direction, absence of ADP; format: biochemical
[2] = biological target: Sucrose synthase 4 (SuSy4) (Solanum tuberosum, UniProt P10691); assay: SuSy4 activity, sucrose synthesis direction, absence of UDP; format: biochemical, Solanum tuberosum L.
Sequence of Sucrose synthase 4 (SuSy4) (P10691 whole entry): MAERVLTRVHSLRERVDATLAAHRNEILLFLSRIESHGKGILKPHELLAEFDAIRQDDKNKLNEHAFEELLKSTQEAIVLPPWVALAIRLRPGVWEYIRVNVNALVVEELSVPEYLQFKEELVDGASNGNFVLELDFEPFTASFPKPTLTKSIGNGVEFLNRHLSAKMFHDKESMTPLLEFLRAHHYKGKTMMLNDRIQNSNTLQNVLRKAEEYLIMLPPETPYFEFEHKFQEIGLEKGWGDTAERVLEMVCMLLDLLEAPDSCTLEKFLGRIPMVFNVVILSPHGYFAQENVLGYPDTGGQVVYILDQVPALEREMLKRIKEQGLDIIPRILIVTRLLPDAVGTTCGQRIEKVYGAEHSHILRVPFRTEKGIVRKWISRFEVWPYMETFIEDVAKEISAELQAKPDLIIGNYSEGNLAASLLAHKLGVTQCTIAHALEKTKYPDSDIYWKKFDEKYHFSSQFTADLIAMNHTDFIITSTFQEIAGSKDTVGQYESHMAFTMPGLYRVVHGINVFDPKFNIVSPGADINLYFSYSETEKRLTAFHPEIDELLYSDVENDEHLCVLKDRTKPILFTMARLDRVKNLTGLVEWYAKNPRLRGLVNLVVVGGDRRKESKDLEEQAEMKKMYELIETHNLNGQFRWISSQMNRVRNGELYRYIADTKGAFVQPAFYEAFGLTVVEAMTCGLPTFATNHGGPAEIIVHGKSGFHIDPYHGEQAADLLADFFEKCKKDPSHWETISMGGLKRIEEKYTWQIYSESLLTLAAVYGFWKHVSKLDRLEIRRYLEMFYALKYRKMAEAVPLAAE

[3] = biological target: T1, Rabbit muscle GPa (RMGPa) (Oryctolagus cuniculus, UniProt P00489); assay: RMGPa activity, glycogen phosphorolysis direction; format: biochemical; conditions: read-out: Km of RMGPa
T1 sequence (P00489 1-843): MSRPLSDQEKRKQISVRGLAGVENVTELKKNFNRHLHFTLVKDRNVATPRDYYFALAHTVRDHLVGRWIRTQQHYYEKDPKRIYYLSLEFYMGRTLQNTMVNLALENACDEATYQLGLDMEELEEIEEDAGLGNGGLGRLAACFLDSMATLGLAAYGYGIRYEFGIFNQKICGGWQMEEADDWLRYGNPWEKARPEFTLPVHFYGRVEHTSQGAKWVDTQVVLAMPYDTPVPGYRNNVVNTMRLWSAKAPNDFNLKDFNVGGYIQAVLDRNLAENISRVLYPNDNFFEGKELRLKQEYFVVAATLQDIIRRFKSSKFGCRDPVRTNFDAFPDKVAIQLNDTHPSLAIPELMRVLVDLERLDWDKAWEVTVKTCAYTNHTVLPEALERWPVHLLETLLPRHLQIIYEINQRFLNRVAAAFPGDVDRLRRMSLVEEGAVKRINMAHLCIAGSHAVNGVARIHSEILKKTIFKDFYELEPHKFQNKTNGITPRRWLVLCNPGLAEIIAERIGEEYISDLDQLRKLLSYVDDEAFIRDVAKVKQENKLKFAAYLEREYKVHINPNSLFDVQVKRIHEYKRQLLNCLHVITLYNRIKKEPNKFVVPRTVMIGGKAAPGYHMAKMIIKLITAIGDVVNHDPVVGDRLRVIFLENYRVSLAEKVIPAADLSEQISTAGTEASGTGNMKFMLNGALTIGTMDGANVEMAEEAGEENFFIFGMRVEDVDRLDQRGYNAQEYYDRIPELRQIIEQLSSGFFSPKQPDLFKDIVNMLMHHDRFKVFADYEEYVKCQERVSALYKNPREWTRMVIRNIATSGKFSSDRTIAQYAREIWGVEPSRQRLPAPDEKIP

[4] = test system: E. coli trehalose-6-phosphate synthase; conditions: cited from earlier work; for IC50: read-out: IC50 trehalose-6-phosphate synthase

Sequence of Escherichia coli GS (EcGS) (P0A6U8 whole entry): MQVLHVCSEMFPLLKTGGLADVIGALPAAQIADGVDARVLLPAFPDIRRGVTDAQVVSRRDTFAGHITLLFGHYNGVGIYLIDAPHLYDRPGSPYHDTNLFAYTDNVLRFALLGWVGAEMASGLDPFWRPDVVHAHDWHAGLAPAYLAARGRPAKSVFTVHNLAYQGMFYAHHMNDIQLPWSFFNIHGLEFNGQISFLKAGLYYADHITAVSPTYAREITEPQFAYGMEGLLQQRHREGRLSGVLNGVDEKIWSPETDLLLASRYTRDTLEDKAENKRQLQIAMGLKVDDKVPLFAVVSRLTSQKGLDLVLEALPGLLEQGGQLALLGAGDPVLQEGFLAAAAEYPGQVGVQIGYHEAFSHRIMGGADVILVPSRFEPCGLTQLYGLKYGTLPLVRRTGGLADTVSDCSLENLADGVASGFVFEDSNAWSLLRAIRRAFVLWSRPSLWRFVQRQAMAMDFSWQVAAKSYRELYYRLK

Nc1ncnc2c1ncn2[C@@H]1O[C@H](COP(=O)(O)OP(=O)(O)O)[C@@H](O)[C@H]1O [ADP]
Ki ([1]; read-out: Ki EcGS, substrate ADPG): 87 ± 6 µM | Type of Inhibition EcGS ([1]; with respect to ADPG): Competitive

OC[C@H]1NC[C@@H](O)[C@@H]1O [DAB, 1,4-dideoxy-1,4-imino-D-arabinitol]
IC50 [1]: 1320 ± 10 µM | IC50 [2]: 246.5 ± 0.1 µM

OC[C@@H]1NC[C@H](O)[C@H]1O [LAB]
Activity (%) EcGS ([1]; remaining activity, 0.5 mM inhibitor, 2 mM ADPG and 4 mg mL−1 glycogen): 89% | Activity (%) SuSy4 ([2]; remaining activity, 0.5 mM inhibitor, 5 mM UDPG and 30 mM fructose): 89%

O=P(O)(O)O [Pi, inorganic phosphate]
Km [3]: 1410 µM

O=c1ccn([C@@H]2O[C@H](COP(=O)(O)OP(=O)(O)O)[C@@H](O)[C@H]2O)c(=O)[nH]1 [UDP]
Ki ([2]; read-out: Ki SuSy4, substrate UDPG): 145 ± 48 µM | Type of Inhibition SuSy4 ([2]; with respect to UDPG): Competitive

validoxylamine-6′-phosphate
improvement of IC50 by UDP ([4]; 0.15 mM UDP): ca. 100 fold | IC50 ([4]; addition of 0.15 mM UDP): 41 µM | IC50 ([4]; without UDP): 5300 µM
